Test results taken from BindingDB's records for doi:10.1016/j.chembiol.2011.05.010 (Harvard Medical School, 2011).

Tests used:
Assay in all cases: Biochemical Assay
Aurora kinase C = biological target: T1, Aurora kinase C (Homo sapiens, UniProt Q9UQB9)
T1 sequence (Q9UQB9 whole entry): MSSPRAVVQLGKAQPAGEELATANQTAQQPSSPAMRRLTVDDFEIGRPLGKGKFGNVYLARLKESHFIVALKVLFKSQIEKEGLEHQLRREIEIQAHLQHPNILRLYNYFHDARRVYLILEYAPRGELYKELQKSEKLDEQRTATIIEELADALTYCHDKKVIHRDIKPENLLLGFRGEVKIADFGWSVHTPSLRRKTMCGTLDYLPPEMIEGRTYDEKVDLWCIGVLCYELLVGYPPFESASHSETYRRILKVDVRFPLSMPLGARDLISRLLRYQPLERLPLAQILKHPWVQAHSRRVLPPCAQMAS
Method: (§1) In vitro biochemical assays were performed in parallel to determine the most potent tool compound.

Aurora kinase B = Aurora kinase B (Homo sapiens, UniProt Q96GD4)
Method: as §1

Aurora kinase A = biological target: T2, Aurora kinase A (Homo sapiens, UniProt O14965)
T2 sequence (O14965 whole entry): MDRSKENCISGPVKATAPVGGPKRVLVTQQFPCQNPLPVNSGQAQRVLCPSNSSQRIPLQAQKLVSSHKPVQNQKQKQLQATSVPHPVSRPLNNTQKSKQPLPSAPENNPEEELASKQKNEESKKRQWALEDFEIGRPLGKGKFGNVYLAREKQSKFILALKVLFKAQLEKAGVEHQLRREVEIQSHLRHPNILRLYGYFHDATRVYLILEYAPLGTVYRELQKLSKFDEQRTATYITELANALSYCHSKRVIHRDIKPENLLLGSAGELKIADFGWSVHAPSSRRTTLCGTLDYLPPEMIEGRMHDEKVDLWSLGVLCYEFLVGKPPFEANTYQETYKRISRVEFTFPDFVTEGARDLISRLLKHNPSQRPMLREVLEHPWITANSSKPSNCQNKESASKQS
Method: as §1

[1] = biological target: Homeodomain-interacting protein kinase 2 (Homo sapiens, UniProt Q9H2X6)
Method: as §1

Homeodomain-interacting protein kinase 2, sequence (Q9H2X6 whole entry): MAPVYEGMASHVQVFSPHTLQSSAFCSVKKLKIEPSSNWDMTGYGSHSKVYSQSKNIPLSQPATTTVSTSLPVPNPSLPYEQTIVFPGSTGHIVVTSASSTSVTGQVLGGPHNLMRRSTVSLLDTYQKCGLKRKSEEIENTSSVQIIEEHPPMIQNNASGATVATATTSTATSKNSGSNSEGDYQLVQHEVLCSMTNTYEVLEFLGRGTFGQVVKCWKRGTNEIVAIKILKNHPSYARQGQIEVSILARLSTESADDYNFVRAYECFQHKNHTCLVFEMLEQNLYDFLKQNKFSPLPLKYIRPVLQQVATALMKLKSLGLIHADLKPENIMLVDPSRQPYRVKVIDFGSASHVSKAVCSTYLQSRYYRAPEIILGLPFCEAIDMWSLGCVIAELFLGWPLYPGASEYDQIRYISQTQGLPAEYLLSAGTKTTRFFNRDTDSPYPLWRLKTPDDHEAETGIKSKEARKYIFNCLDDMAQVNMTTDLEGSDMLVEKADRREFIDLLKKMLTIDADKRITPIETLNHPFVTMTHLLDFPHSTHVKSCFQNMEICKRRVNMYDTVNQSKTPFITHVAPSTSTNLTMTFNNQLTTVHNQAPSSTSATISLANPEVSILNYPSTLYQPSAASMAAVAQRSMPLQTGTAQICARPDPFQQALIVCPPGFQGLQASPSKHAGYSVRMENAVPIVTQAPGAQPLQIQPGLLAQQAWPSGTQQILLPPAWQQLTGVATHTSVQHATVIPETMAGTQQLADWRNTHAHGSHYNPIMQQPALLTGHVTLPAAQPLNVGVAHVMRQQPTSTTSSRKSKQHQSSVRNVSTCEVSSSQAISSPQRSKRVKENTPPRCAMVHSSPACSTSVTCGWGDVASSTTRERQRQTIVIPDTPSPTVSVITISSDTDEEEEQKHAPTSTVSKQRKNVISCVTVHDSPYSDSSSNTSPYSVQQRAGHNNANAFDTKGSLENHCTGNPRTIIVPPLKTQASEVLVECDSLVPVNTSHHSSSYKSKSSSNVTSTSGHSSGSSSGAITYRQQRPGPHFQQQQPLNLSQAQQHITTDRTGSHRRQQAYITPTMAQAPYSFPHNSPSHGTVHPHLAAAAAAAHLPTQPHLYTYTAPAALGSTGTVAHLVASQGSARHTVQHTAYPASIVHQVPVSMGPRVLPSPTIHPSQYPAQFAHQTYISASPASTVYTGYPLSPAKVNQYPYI
Aurora kinase B, sequence (Q96GD4 whole entry): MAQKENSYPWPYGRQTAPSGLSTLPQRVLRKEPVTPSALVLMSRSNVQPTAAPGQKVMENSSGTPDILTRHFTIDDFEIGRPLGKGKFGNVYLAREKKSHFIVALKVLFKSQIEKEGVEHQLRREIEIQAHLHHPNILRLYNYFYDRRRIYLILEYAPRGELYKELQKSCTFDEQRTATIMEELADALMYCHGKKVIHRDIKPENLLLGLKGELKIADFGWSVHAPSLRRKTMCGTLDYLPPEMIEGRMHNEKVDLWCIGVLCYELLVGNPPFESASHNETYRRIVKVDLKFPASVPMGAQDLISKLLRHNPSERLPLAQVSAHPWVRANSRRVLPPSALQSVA

IC50 (Aurora kinase C) [nM]	IC50 (Aurora kinase B) [nM]	IC50 (Aurora kinase A) [nM]	IC50 [1] [nM]	Kd [1] [nM]	SMILES
41	24	8			CN1C(=O)c2ccccc2N(C)c2nc(Nc3ccc(N4CCC(O)CC4)cc3)ncc21 [Benzo[e]pyrimido[5,4-b][1,4]diazepin-6(11H)-one, 1]
			74	9.5	N=C1NC(=O)/C(=C\c2c[nH]c(=O)c(-c3ccc(N4CCNCC4)nc3)c2)S1 [Furan thiazolidinediones, A64]
